Assays:
[1] = cited from earlier work
[2] = tested on: human lung adenocarcinoma LXFL; assay: Clonogenic assay under aerobic and hypoxic conditions, LXFL; assay type: cell-based; conditions: LXFL cells; for C10 hypoxic: 60 min drug exposure; for HCR: ratio of C10 under aerobic and hypoxic conditions; for RHT: ratio of hypoxic TPZ C10 to hypoxic compound C10
Procedure: (§1) Evaluation of the Cytotoxicity of Compounds by Clonogenic Assay Under Aerobic and Hypoxic Conditions.
(§2) Compounds representative of the invention were evaluated under both aerobic and hypoxic conditions in clonogenic assays, using three cell lines: human colon carcinoma HT-29, murine SCCVII, and human lung adenocarcinoma LXFL. Clonogenic survival was determined using aerobic and hypoxic SCCVII cell suspensions. Drug exposures were performed using continuously stirred and gassed single cell suspensions (10^6 cells/mL) at 37° C., equilibrated with 5% CO2 in air or N2 for 60 min before drug addition. After a 60 min drug exposure cells were washed by centrifugation and plated to determine colony formation Cytotoxicity was measured as the concentration required to reduce plating efficiency to 10% of controls (C10). The hypoxic cytotoxicity ratio (HCR) was determined as the ratio of the C10 values under aerobic and hypoxic conditions. The relative hypoxic toxicity (RHT) was determined as the ratio of hypoxic TPZ C10 to hypoxic BTO C10. Abbreviations used in Table 2 are:
(§3) C10=The concentration of drug (in micromolar) to reduce viable cell numbers to 10% of those of control cell cultures grown under the same conditions but not exposed to drug
(§4) RHT=Relative hypoxic toxicity is defined as the ratio of concentrations of Tirapazamine/test compound to give equal cell killing under hypoxic conditions.
(§5) HCR=Hypoxic cytotoxicity ratio is defined as the ratio of drug concentrations under aerobic and hypoxic condition to produce equal cell survival (10%) determined by clonogenic assay

[3] = tested on: human colon carcinoma HT-29; assay: Proliferation assay (IC50) under aerobic and hypoxic conditions, HT-29; assay type: cell-based; conditions: for RHT: HT-29, ratio Tirapazamine/test compound under hypoxic conditions; for HCR: HT-29, ratio of IC50 under aerobic and hypoxic conditions; for IC50: Homo sapiens, HT-29, hypoxic (anoxia <0.001% O2), 4 h exposure
Procedure: (§6) Evaluation of the Cytotoxicity of Compounds by Proliferation Assay (IC50) Under Aerobic and Hypoxic Conditions.
(§7) Compounds representative of the invention were evaluated under both aerobic and hypoxic conditions in a proliferation assay (IC50), using two cell lines: human colon carcinoma HT-29, and human cervical carcinoma SiHa.
(§8) Drug exposures were performed in 96-well plates (Nunc) using either a 37° C. humidified incubator (20% O2, 5% CO2) or in the incubator compartment (37° C.) of an anaerobic chamber (Shell Lab) where palladium catalyst scrubbed gas (90% N2, 5% H2, 5% CO2) ensures severe anoxia (<0.001% O2). For each experiment, compounds were simultaneously tested under both oxic and hypoxic conditions against the HT-29 cell line and included TPZ as an independent internal control at the front and back of the assay (n=2). Final data was pooled from a series of seven independent experiments and is calculated using inter-experimental means. In all cases, 8-methyl-5-nitroquinoline was used as a second internal control to confirm that strict hypoxia was present during the experiment. (Siim et al. Br. J. Cancer 1994, 70, 596-603). Cell cultures were grown in αMEM (Gibco) containing 5% heat inactivated FCS and maintained in exponential growth phase. For each individual experiment an appropriate number of cells were seeded (HT-29=1000) into wells in αMEM÷10% FCS+10 mM added glucose+100 μM 2′-deoxycytidine (2′dCyd), and allowed to attach for 3 h. High glucose (final concentration 17 mM) and the presence of 2′-dCyd minimize hypoxia-induced cell cycle arrest. Replicates were then exposed to BTOs, using 2-fold serial dilutions in triplicate, for a further 4 h. Subsequently cells were washed free of compound using complete media (without glucose/2′-dCyd) and allowed to grow for 5 (oxic) or 6 (anoxic) days. Plates were stained as described previously (Wilson et al., J. Med. Chem. 1989, 32, 31-38) and IC50 values determined.
(§9) IC50=The concentration of drug (in micromolar) to reduce viable cell numbers to 50% of those of control cell cultures grown under the same conditions but not exposed to drug
as §4
(§10) HCR=Hypoxic cytotoxicity ratio is defined as the ratio of drug concentrations under aerobic and hypoxic condition to produce equal cell survival (50%) determined by proliferation assay

murine SCCVII = assay: Clonogenic assay under aerobic and hypoxic conditions, SCCVII; assay type: cell-based; conditions: SCVIII cells; for IC90: Mus musculus, 1 h, hypoxic, 60 min drug exposure, SN (hypoxic), read-out: C10 hypoxic; for HCR: ratio of C10 under aerobic and hypoxic conditions; for RHT: ratio of hypoxic TPZ C10 to hypoxic compound C10
Procedure: as §1, §2, §3, §4, §5

[4] = tested on: human colon carcinoma HT-29; assay: Clonogenic assay under aerobic and hypoxic conditions, HT-29; assay type: cell-based; conditions: HT 29 cells; for C10 hypoxic: 60 min drug exposure, concentration reducing plating efficiency to 10% of controls; for HCR: ratio of C10 under aerobic and hypoxic conditions; for RHT: ratio of hypoxic TPZ C10 to hypoxic compound C10
Procedure: as §1, §2, §3, §4, §5

[5] = tested on: human cervical carcinoma SiHa; assay: Proliferation assay (IC50) under aerobic and hypoxic conditions, SiHa; assay type: cell-based
Procedure: as §6, §7, §8, §9, §4, §10

IC50 [3] [nM]	IC90 (murine SCCVII) [nM]	IC50 ([5]; Homo sapiens, hypoxic, 4 h exposure) [nM]	Structure (SMILES)	activity under aerobic or hypoxic conditions [1]	C10 hypoxic [2] [µM]	HCR [2]	RHT [2]	RHT [3]	HCR [3]	HCR (murine SCCVII)	RHT (murine SCCVII)	C10 hypoxic [4] [µM]	HCR [4]	RHT [4]	RHT ([5]; ratio Tirapazamine/test compound under hypoxic conditions)	HCR ([5]; ratio of IC50 under aerobic and hypoxic conditions)
			Nc1nnc2ccccc2n1 [SR 4330]	inactive												
16	480		[O-][n+]1nc(NCCCCCCNc2c3ccccc3nc3ccccc23)[n+]([O-])c2ccccc21 [Compound 11, N^1-(9-Acridinyl)-N^6-(1,4-dioxido-1,2,4-benzotriazin-3-yl)-1,6-hexanediamine]		0.04	35.0	450	370	38	20.0	16.7	0.12	83.0	416		
65	300	31	O=C(NCCCNCCCNc1n[n+]([O-])c2ccccc2[n+]1[O-])c1cccc2cc3ccccc3nc12 [Compound 30, N-[3-({3-[(1,4-Dioxido-1,2,4-benzotriazin-3-yl)amino]propyl}amino)propyl]-4-acridinecarboxamide]		0.4	12.5	50	90	167	21.3	20	0.9	33.0	78	121	41
			Nc1nc2ccccc2[n+]([O-])n1 [SR 4317]	inactive												

Reference: US20070191372A1, “Dna-targeted benzotriazine 1,4-dioxides and their use in cancer therapy” (Auckland Uniservices Limited, priority 2002, published 2007)
